Square brackets hold non-standard residues; d marks the D form. Ends that are not written are not given here. Peptide text beside a SMILES is read from it. * marks the point of attachment. Cbz = O=C(OCc1ccccc1)*

These results are taken from US20200230207A1, “TREATMENT OF BONE GROWTH DISORDERS” (FONDAZIONE TELETHON, priority 2015, published 2020).

Data set [1] concerns growth plate chondrocytes. Put plainly: LC3II in femoral growth plates after leupeptin injection. Type of data set: in vivo, mouse. The protocol: FIG. 9: a, Comparative TEM images of P0 and P6 wild type growth plate chondrocytes showing increased autophagosomes (AV) biogenesis at P6. Arrows indicate AVs. Bar graphs show number and size of AVs within 5.3 μm field of view (values represent mean±s.e.m. Student's t-test **p<0.005). b, Western blot analysis of LC3I/II of femoral growth plates from mice at indicated ages. Mice were injected with leupeptin (40 mg/kg i.p. 6h before sacrifice) where indicated. β-actin was used as loading control. Bar graphs show quantification of LC3II protein relative to β-actin (mean±s.e.m. *p<0.05 Student's t-test. n=3/group). c, Representative Western blot analysis of Atg7, LC3 and SQSTM1 (p62) proteins in Atg7 f/f, Col2a1-Cre; Atg7 f/f and Prx1-Cre; Atg7 f/f growth plate lysates. […]
FIG. 15: a, Representative images of high content imaging analysis of primary chondrocytes isolated from GFP-LC3 transgenic mice and treated with vehicle or FGF18 (25 ng /ml for 24 h). […] Scale bar 50 μm. b, Quantification of green vesicles (AVs) in cells treated with the indicated factors for 24h. Vesicles were counted in at least 1000 cells/treatment. […] Bar graphs show % of red vesicles (autolysosomes) and of total vesicles relative to vehicle (Values represent mean values±s.d. At least 10 cells/experiment were analyzed from 3 independent experiments. *p<0.05 ***p<0.0005. Student's t-test). […]

Data set [2] has as its system FGFR3ach and FGFR3TD chondrocytes. In words: LC3II in FGFR3 WT, FGFR3ach and FGFR3TD chondrocytes with lysosomal inhibitors. Type of data set: cell-based, rat. Conditions: leupeptin 50 μM 2 h; bafilomycin 200 nM 4 h. The method, then: Bars graphs represent LC3II quantification relative to β-actin. […] Graphs show representative histograms.
Leupeptin and bafilomycin treatments: Leupeptin (Sigma) was resuspended in water at 10 mM. FGFR3 wild type, FGFR3ach and FGFR3TD stable chondrocytes cell line were treated with 50 μM leupeptin for 2 h at 37° C. Bafilomycin (Millipore) was resuspended in DMSO at 200 μM. FGFR3 wild type, FGFR3 ach and FGFR3TD stable chondrocytes cell line were treated with 200 nM bafilomycin for 4 h at 37° C.

For a further data set, the system named is GusbKO chondrocytes. In words: Protein degradation and mTORC1 signaling in GusbKO RCS chondrocytes with Mg132. Type of data set: cell-based, rat. The method, then: FIG. 23: G, WT and GusbKO RCS cells were pulse labelled for 18h with ^3H-Ser and chased for 48h in medium containing vehicle or 100 nM Mg-132. The rate of protein degradation is shown as the fraction of radiolabelled protein remaining over time. Values are expressed as mean (±s.e.m.) of n=3 independent experiments (Student's t-test, * p<0.05, ** p<0.005). H, Luminescent signal resulting from the cleavage of a luminescent Suc-LLVY peptide by the chymotrypsin-like activity of the proteasome was measured in WT and GusbKO RCS cells after 6h treatment with aminoacids. Data are representative of 3 independent experiments and are graphed as relative fluorescence units (RFU) (Student's t-test, * p<0.05). I, Western blot analysis of mTORC1 signaling in WT and GusbKO RCS cells treated with Mg-132 (10 μM) or DMSO (−) for 6h. Arrowheads indicate specific band. J, Bar graphs displaying quantification of relative phosphorylation. Values are expressed as mean (±s.e.m.) of n=3 independent experiments (Student's t-test, * p<0.05, ** p<0.005).

Data set [3] concerns Rx chondrocytes. In words: Procollagen (PC2) secretion and trafficking in Rx chondrocytes. Type of data set: cell-based, rat. The protocol: FIG. 6: a, b, Quantification of secreted PC2 in control and Spautin-1-treated (24 h, 50 μM) (a) and Atg7-knockdown (KD; b) RCS chondrocytes after ER block release of PC2 (min). Ctrl, control. Mean values (±standard deviation (s.d.)) of 3 independent experiments. ANOVA, P=5.29×10^−5 (a), P=0.007 (b); Sidak post-hoc test, […], ***P<0.0005. c, PC2 localization in Golgi area and ER (HSP47) in vehicle and Spautin-1-treated (24 h, 50 μM) RCS chondrocytes 10 min after the ER block release of PC2. Bar graph represents the percentage (±s.d.) of cells containing PC2 in the indicated cellular compartment. N=60; n=3 independent experiments. Student's t-test, **P<0.005. Scale bar, 10 μm. d, Immunofluorescence of PC2, Sec31 and GFP-LC3 in RCS chondrocytes. The insets show higher magnification and single colour channels of the boxed area. N, nucleus. The data are representative of 5 independent experiments. Scale bar, 5 μm. e, Spinning-disk confocal image of RCS chondrocytes co-expressing GFP-LC3- and mCherry-PC2-tagged proteins. Arrows show PC2 molecules sequestered by GFP vesicles. The data are representative of 3 independent experiments. Scale bar, 10 μm. f, Time-lapse stills of PC2 and LC3 from the boxed region in e.
The insets show a high magnification of selected areas. […] The insets show a high magnification of selected areas. Red=collagen; Blue=DAPI. Scale bar 10 μm.
FIG. 14: a a, Immunofluorescence staining of HSP47 chaperone (red) in Atg7^fl/fl and Atg7^fl/fl; Prx1-Cre chondrocytes, showing altered HSP47 distribution in Prx1-Cre; Atg7^fl/fl chondrocytes. The data are representative of 3 independent experiments. Insets show a higher magnification of the boxed area. Scale bar, 10 μm. Blue, DAPI. b, Co-localization of PC2 with HSP47 in growth-plate chondrocytes of mice with indicated genotypes. The data are representative of 3 independent experiments. Scale bar, 20 μm. c, Altered HSP47 and PC2 trafficking in Spautin-1-treated chondrocytes. HSP47 and PC2 immunostaining in control (vehicle) or Spautin-1-treated RCS chondrocytes. Synchronized PC2 secretion was obtained after incubating chondrocytes for 3 h at 40° C. to block PC2 in the ER, and then shifting the temperature to 32° C. (ER block release) for 10 min. The data are representative of 2 independent experiments. Scale bar, 10 μm. d, Proposed model of autophagy function in chondrocytes. Autophagy in chondrocytes prevents PC2 aggregation and maintains ER homeostasis during the process of PC2 secretion. e, Confocal analysis of GFP-LAMP1 (green) and mCherry-PC2 (red) in vehicle- and Spautin-1-treated chondrocytes at the indicated time points (min) after the ER block release. The insets show a high magnification of the selected area. Scale bar, 5 μm. f, Quantification of GFP-LAMP1/mCherry-PC2 co-localization. Values represent mean±s.d. from three independent experiments. N=30. […] The data are representative of 2 independent experiments. Scale bar, 10 μm.
Live cell imaging: Rx chondrocytes were reverse transfected and plated in Mattek glass bottomed dishes. Collagen transport assays were performed by incubating cells at 40° C. on the heated stage for 2.5 h. Collagen release was initiated by lowering the temperature of the stage to 32° C. and medium being supplemented with 50 μg/ml ascorbate.
Procollagen secretion assay: To follow PC2 secretion in Rx chondrocytes, cells were pretreated ON with ascorbate (100 μg/ml) in DMEM without FCS. […]

For data set [4], the system named is primary chondrocytes isolated from GFP-LC3 mice. In words: High content GFP-LC3 vesicle count in primary chondrocytes. Format: cell-based, mouse. Conditions: in the presence of BafA1, 25 ng/ml for 24 h. The method, then: (§1) FIG. 15: a, Representative images of high content imaging analysis of primary chondrocytes isolated from GFP-LC3 transgenic mice and treated with vehicle or FGF18 (25 ng /ml for 24 h). BafA1 was used where indicated for 4 h (200 nM). Green spots represent GFP labeled AVs. Scale bar 50 μm. b, Quantification of green vesicles (AVs) in cells treated with the indicated factors for 24h. Vesicles were counted in at least 1000 cells/treatment. […] Bar graphs show % of red vesicles (autolysosomes) and of total vesicles relative to vehicle (Values represent mean values±s.d. At least 10 cells/experiment were analyzed from 3 independent experiments. *p<0.05 ***p<0.0005. Student's t-test). […] Quantification of data (mean±s.e.m of n=5 mice/group. *p<0.05, Student's t-test) f, Western blot analysis of Fgf18+/+ and Fgf18+/− growth plate lysates. […]
High content screening analysis in GFP-LC3 primary chondrocytes: Primary chondrocytes were plated in CellCarrier-96 Black plates (6005558, Perkin Elmer). […] To carry out the analysis the number of cytoplasmic GFP-LC3 spots in the cytoplasm of Col2 positive cells were counted, and expressed per cell. Levels of colocalization between GFP-LC3 and Col2a1 were assessed and expressed as %, using the parameters: area of colocalization of red spots with area of green spots normalized to total area of green spots. […]

In the next data set the test system is VPS34-Beclin 1 complex. In words: Bcl2 phosphorylation, Beclin 1 co-immunoprecipitation and PI3K assay in Rx chondrocytes. Format: cell-based, rat. Conditions: 25 ng/ml.
Data set [5] deals with Rx chondrocytes. In words: Tandem mRFP-EGFP-LC3 autophagic flux in Rx chondrocytes. Conditions: 25 ng/ml for 24 h. Type of data set: cell-based, rat. The protocol: as §1, with “cells/treatment. Values represent mean values±s.d. of n=3 independent experiments; Statistical analysis was performed using repeated measure ANOVA with TUKEYs post-hoc test. **p<0.005. c, Western blot analysis of primary chondrocytes isolated from wild type mice treated as indicated (FGF18 25 ng/ml, 24 h). Where indicated BafA1 was added (200 nM, 4h).” for “cells/treatment.”

The test system of data set [6] is rat model of osteoarthritis. To be noted: intra articular injection; cited from earlier work.
Another data set concerns MPSVI mice. Put plainly: Femur and tibia lengths in MPSVI mice. Type of data set: in vivo, mouse. To be noted: 2 mg/kg i.p. daily for 15 days, P15. The method, then: (§2) Control mice were injected with vehicle only. Mice were sacrificed after 15 (P15) and 30 (P30) days.
(§3) Skeletal staining: Skeletons were fixed in 95% ethanol overnight (ON) and stained with alcian blue and alizarin red according to standardized protocols (http://empress.har.mrc.ac.uk/browser/). Three to five mice of each genotype were analyzed per stage. Measurement of bone length was performed using ImageJ software.

In data set [7] the test system is MPSVII mice. Put plainly: Growth plate histology, BrDU index and collagen in MPSVII mice. To be noted: 2 mg/kg i.p. daily, P15. Type of data set: in vivo, mouse.
The test system of data set [8] is MPSVII mice. Put plainly: Femur and tibia lengths in MPSVII mice. Format: in vivo, mouse. Conditions: 2 mg/kg i.p. daily, P15 and P30. The method, then: as §2, §3
The mark [9] stands for this setting: synchronized PC2 secretion, 24 h, 50 μM.

Regarding `CC(=O)N[C@@H](CC(C)C)C(=O)N[C@@H](CC(C)C)C(=O)N[C@H](C=O)CCCNC(=N)N` [Leupeptin], in [1] (40 mg/kg i.p. 6h before sacrifice, P2 and P6), the “LC3II levels in the growth plate of wild type mice” value is reported as “further increased the levels of LC3II in the growth plate of P6 but not P2 mice”. Besides, the “LC3II levels in the growth plate of control and Fgf18+/- mice” value in data set [1] (40 mg/kg i.p. 6 h before sacrifice, P6) is “significantly increased LC3II levels in the growth plate of P6 control but not in Fgfl 8 mice”. In addition, in [2], the “level of LC3II protein compared to FGFR3 wild type stable cells” value was “did not increase”.

As for `CC(C)C[C@@H](C=O)NC(=O)[C@H](CC(C)C)NC(=O)[C@H](CC(C)C)NC(=O)OCc1ccccc1` [Mg132] (Cbz-Leu-Leu-Leu-aldehyde), the “increased protein degradation rate of GusbKO chondrocytes” value in the data set on GusbKO chondrocytes (100 nM, 48h chase) is recorded as “completely blunted”. Also, the mTORC1 signaling result with GusbKO chondrocytes (10 μM, 6h) is listed as “normalized”.

Turning to `Fc1ccc(CNc2ncnc3ccc(F)cc23)cc1` [Spautin-1], in the data set on Rx chondrocytes [3] (Spautin-1 24h added to FGF18-stimulated cells), the “FGF18-induced increase of PC2 secretion” value is on record as “hampered this increase”. The “ER to cis-Golgi trafficking of HSP47” value in the data set with Rx chondrocytes [3] (cultured chondrocytes) is given as “inhibited”. In the data set on Rx chondrocytes [3] (setting [9]), the “PC2 localization in the ER” value was “retention of PC2 in the ER” and the PC2 secretion result is “defective PC2 secretion”.

Take “FGF18: fibroblast growth factor 18 (Peprotech)”: the “AV number (autophagosome biogenesis)” value in data set [4] is listed as “increase significantly”. Further, the “interaction of Beclin 1-Bcl2” value in the data set on VPS34-Beclin 1 complex (2h) is given as “decreased”. Further, in the data set with VPS34-Beclin 1 complex (2 h, JNK dependent), the “VPS34-Beclin 1 complex activity (PI3P levels produced)” value is recorded as “increases”. Moreover, the “phosphorylation of Bcl-2” value with VPS34-Beclin 1 complex (2h, JNK-dependent) is on record as “increases”. Further, in the data set on Rx chondrocytes [5], the “autophagic flux (autolysosome number)” value is listed as “enhanced”. For the same compound, the “repair of damaged cartilage” value in data set [6] is reported as “can stimulate the repair of damaged cartilage”. The “efficiency of PC2 secretion compared to non-stimulated cells” value in the data set with Rx chondrocytes [3] (FGF18 25 ng/ml) is reported as “higher efficiency”.

“RRRQRRKKRGYGGTGFEGDHWIEFTANFVNT ([dR][dR][dR][dQ][dR][dR][dK][dK][dR]G[dY]GG[dT]G[dF][dE]G[dD][dH][dW][dI][dE][dF][dT][dA][dN][dF][dV][dN][dT]; also: retro-inverso)”: the “femoral and tibial growth retardation” value with MPSVI mice is “rescues”. Further, in the data set on MPSVII mice [7], the “collagen levels in femoral and tibia cartilages” value is “normalizes”; the “growth plate differentiation and proliferation defects” value was “normalizes”. The “femoral and tibial growth retardation” value in the data set with MPSVII mice [8] is on record as “rescues”.

On to bafilomycin, for which the “level of LC3II protein compared to FGFR3 wild type stable cells” value in data set [2] is “did not increase”.
